Data published in ChEMBL document CHEMBL1157782, “Anti-microtubule 'plinabulin' chemical probe KPU-244-B3 labeled both alpha- and beta-tubulin” (Bioorg Med Chem, 2010).
Activity calls are given as the source filed them. The calls are words filed in the database; no cut-off is given here. Square brackets hold non-standard residues; d marks the D form. Peptide text beside a SMILES is read from it. * marks the point of attachment. Biotin = O=C1N[C@H]2[C@H](CS[C@H]2CCCCC(=O)*)N1; Ahx = NCCCCCC(=O)O

What was measured:
HT-1080 [1] = assay: Binding affinity to beta-tubulin in human HT1080 cells after overnight incubation by SDS-PAGE; type: cell-based
HT-1080 [2] = assay: Binding affinity to alpha-tubulin in human HT1080 cells after overnight incubation by SDS-PAGE; type: cell-based
HT-29 = assay: Cytotoxicity against human HT-29 cells; type: functional, cell-based
Tubulin (Sus scrofa) [3] = biological target: T1, Tubulin (Sus scrofa) (UniProt P02554+P02550); assay: Binding affinity to pig tubulin at 2 uM treated for 30 mins followed by photo-irradiation at 365 nm for 30 secs measured after 1 hr by Western blot analysis; type: protein assay
T1 sequence (P02550 whole entry, looked up): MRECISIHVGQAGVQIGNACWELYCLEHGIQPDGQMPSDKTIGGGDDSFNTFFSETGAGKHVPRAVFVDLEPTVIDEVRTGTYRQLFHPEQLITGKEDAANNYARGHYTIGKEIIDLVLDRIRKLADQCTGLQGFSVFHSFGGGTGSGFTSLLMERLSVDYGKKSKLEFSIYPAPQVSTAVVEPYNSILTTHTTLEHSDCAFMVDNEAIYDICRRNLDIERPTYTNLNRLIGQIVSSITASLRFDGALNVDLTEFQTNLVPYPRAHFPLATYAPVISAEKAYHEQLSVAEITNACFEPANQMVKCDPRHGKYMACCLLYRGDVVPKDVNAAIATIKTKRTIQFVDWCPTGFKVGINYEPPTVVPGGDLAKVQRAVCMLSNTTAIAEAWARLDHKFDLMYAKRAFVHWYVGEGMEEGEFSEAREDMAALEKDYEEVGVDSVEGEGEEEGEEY
T1 sequence (P02554 whole entry, looked up): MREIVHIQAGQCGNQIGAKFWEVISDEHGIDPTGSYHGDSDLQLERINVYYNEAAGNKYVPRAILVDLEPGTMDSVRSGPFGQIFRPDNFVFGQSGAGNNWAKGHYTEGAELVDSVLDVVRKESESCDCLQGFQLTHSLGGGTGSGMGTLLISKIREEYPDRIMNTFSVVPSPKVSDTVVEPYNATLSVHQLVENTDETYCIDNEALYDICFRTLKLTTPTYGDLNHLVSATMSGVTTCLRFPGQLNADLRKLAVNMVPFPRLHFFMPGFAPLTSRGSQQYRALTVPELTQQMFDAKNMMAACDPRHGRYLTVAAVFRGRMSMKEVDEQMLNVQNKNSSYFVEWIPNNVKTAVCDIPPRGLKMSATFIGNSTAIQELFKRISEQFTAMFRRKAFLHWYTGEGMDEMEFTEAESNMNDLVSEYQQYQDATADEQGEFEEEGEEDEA

Tubulin = Tubulin (Sus scrofa, UniProt P02554+P02550); assay: Binding affinity to pig tubulin after 1 hr by fluorescence quenching analysis; type: protein assay
Tubulin (Sus scrofa) [4] = biological target: T1, Tubulin (Sus scrofa); assay: Binding affinity to pig tubulin at 2 uM treated for 30 mins followed by photo-irradiation at 365 nm for 30 secs measured after 1 hr by CBB staining-based SDS-PAGE; type: protein assay
Sus scrofa [5] = organism: Sus scrofa; assay: Binding affinity to pig alpha-tubulin at 2 uM treated for 30 mins followed by photo-irradiation at 365 nm for 30 secs measured after 1 hr by Western blot analysis
Tubulin (Sus scrofa) [6] = biological target: T1, Tubulin (Sus scrofa); assay: Binding affinity to pig tubulin at 2 uM treated for 30 mins followed by photo-irradiation at 365 nm for 30 secs measured after 1 hr by Western blot analysis in presence of increasing concentration of plinabulin; type: protein assay
Tubulin (Sus scrofa) [7] = biological target: T1, Tubulin (Sus scrofa); assay: Binding affinity to pig tubulin at 2 uM treated for 30 mins followed by photo-irradiation at 365 nm for 30 secs measured after 1 hr by Western blot analysis in presence of 100 equivalents of colchicine; type: protein assay
Sus scrofa [8] = organism: Sus scrofa; assay: Binding affinity to pig beta-tubulin at 2 uM treated for 30 mins followed by photo-irradiation at 365 nm for 30 secs measured after 1 hr by Western blot analysis
Tubulin (Sus scrofa) [9] = biological target: T1, Tubulin (Sus scrofa); assay: Binding affinity to pig tubulin assessed as irradiation-time-dependent labeling at 2 uM treated for 30 mins followed by photo-irradiation at 365 nm by CBB staining-based SDS-PAGE; type: protein assay; conditions: TDE = time-dependent effect
Tubulin (Sus scrofa) [10] = biological target: T1, Tubulin (Sus scrofa); assay: Binding affinity to pig tubulin at 2 uM treated for 30 mins followed by photo-irradiation at 365 nm for 30 secs measured after 1 hr by Western blot analysis in presence of 5-100 equivalents of biotin; type: protein assay

SMILES	Activity (HT-1080 [1])	Activity (HT-1080 [2])	IC50 (HT-29) [nM]	Kd (Tubulin) [nM]	other results
NCCCC[C@H](NC(=O)CCCCCNC(=O)CCCCCNC(=O)CCCC[C@@H]1SC[C@@H]2NC(=O)N[C@@H]21)C(=O)N[C@@H](CCCCN)C(=O)NCCCCCC(=O)NCCCCCC(=O)NCCCCCC(=O)NCCCCCC(=O)O ({Biotin-Ahx-Ahx}-KK[Ahx][Ahx][Ahx][Ahx]-OH)	inactive	inactive	–	–	–
CC(C)(C)c1ocnc1/C=c1\[nH]c(=O)/c(=C/c2cccc(C(=O)c3ccccc3)c2)[nH]c1=O	–	–	4	–	–
CC(C)(C)c1ocnc1/C=c1\[nH]c(=O)/c(=C/c2cccc(C(=O)c3ccc(CNC(=O)CCCCCNC(=O)CCCCCNC(=O)CCCC[C@@H]4SC[C@@H]5NC(=O)N[C@@H]54)cc3)c2)[nH]c1=O (stereo in doubt)	–	–	–	9740	Activity (Tubulin (Sus scrofa) [3]): Active
CC(C)(C)c1ocnc1/C=c1\[nH]c(=O)/c(=C/c2cccc(C(=O)c3ccc(CNC(=O)CCCCCNC(=O)CCCCCNC(=O)CCCCCNC(=O)CCCCCNC(=O)[C@H](CCCCN)NC(=O)[C@H](CCCCN)NC(=O)CCCCCNC(=O)CCCCCNC(=O)CCCC[C@@H]4SC[C@@H]5NC(=O)N[C@@H]54)cc3)c2)[nH]c1=O (stereo in doubt)	Active	Active	–	25170	Activity (Tubulin (Sus scrofa) [4]): Active; Activity (Sus scrofa [5]): Active; Activity (Tubulin (Sus scrofa) [6]): inactive; Activity (Tubulin (Sus scrofa) [7]): inactive; Activity (Sus scrofa [8]): Active; Activity (Tubulin (Sus scrofa) [9]): tde; Activity (Tubulin (Sus scrofa) [10]): Active
CC(C)(C)c1[nH]cnc1/C=c1\[nH]c(=O)/c(=C/c2ccccc2)[nH]c1=O [PLINABULIN]	–	–	15	1060	–
